By Kd is commonly meant the free concentration of one partner at which half of the binding sites on the other are occupied at equilibrium, for simple one-to-one binding. Usually inhibition stands for the percentage by which the read-out fell short of the control. By IC50 is commonly meant the point on the concentration scale where inhibition reaches its midpoint.

The values that follow come from paper PMC7004148, “Flexible Fragment Growing Boosts Potency of Quorum‐Sensing Inhibitors against Pseudomonas aeruginosa Virulence” (Chemmedchem, 2019).

Experiment [1] concerns the target T1, PqsR (Pseudomonas aeruginosa, UniProt Q9I4X0). Description: biochemical. It counts as binding. Also noted: H6SUMOPqsRc87 and T265A mutant H6SUMOPqsRc87 for ITC studies was expressed; made in house; host or cells: E. coli BL21 (λDE3). As to the method: 3.2 Expression and Purification of H6SUMOPqsRc87
H6SUMOPqsRc87 and T265A mutant H6SUMOPqsRc87 for ITC studies was expressed and purified as previously reported.[8,9] Briefly, E. coli BL21 (λDE3) transfected with the pSUMO3_ck4_pqsRC87 or pSUMO3_ck4_T265ApqsRC87 plasmid[8] were grown in LB medium containing 50 µg mL-1 kanamycin at 37 °C to an OD600 of approximately 0.8 and expression was induced with 0.2 mM IPTG for 16 h at 16 °C. The protein was purified using nickel affinity chromatography in a one step gradient.
ITC titrations were performed as described before.[8,9] Briefly, ITC experiments were carried out using an ITC200 instrument (Microcal Inc., GE Healthcare). The titrations were performed on 50-150 µM H6SUMO-PqsRC87 in the 200 µL sample cell using 19 injections of 2 µL ligand solution (0.5-1.5 mM) every 180 s. The data were collected and the area under each peak was integrated. To correct for heats of dilution and mixing the final base line consisting of small peaks of the same size at the end of the titration were substracted.
Target sequence in this assay (Q9I4X0 87-332): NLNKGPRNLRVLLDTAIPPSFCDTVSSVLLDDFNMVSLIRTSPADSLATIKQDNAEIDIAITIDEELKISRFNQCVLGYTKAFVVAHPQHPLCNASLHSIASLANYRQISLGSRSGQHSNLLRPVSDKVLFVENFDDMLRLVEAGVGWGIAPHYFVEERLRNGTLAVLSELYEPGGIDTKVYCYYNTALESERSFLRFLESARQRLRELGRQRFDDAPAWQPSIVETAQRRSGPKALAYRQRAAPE

Experiment [2] concerns the target T1, PqsR. Briefly: PqsR β-galactosidase reporter gene assay in E. coli. The class given is cell-based. Also noted: expressed in transfected cells; host or cells: E. coli DH5α carrying plasmid pEAL08-2. The following applies: for IC50 (inverse agonistic/antagonistic activity) / Inverse agonistic/antagonistic activity at a given concentration: in the presence of 50 nM PQS; for IC50 (inverse agonistic/antagonistic activity): n.i.=no inhibition (activity≤15 %); for Inverse agonistic/antagonistic activity at a given concentration: @ 100 μM. The method, then:
5. E. coli reporter-gene assay & dose-response curves
PqsR Reporter gene assay in E. coli. The inverse agonistic/antagonistic activity of potential PqsR ligands was evaluated in a β-galactosidase reporter gene assay in E. coli as previously described.[26] In short, test compounds were co-incubated with E. coli DH5α cells containing the plasmid pEAL08-2,[27] which expresses PqsR and the β-galactosidase LacZ under the control of the pqsA promoter. The inverse agonistic/antagonistic activity of compounds was measured in the presence of 50 nM PQS. After incubation, galactosidase activity was quantified photometrically and expressed as ratio of controls. The given IC50 values represent the mean of at least two independent experiments using at least eight different concentrations of test compound with n = 4. Non-linear regression analysis was done using the log (inhibitor) vs response model included in the GrapPad Prism 5.0 software package.
(In a reporter assay the amount or activity of a reporter protein is the signal.)
Target sequence in this assay (Q9I4X0 whole entry): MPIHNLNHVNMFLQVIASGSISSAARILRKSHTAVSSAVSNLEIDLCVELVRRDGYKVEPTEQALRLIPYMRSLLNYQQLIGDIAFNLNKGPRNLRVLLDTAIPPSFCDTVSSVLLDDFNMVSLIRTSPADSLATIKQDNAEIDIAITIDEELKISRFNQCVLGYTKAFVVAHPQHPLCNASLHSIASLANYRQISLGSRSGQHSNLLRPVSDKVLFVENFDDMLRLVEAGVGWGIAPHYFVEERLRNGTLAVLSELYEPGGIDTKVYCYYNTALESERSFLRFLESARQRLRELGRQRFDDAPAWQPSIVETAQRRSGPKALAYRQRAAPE

Experiment [3] relates to pyocyanin in P. aeruginosa PA14. Briefly: Pyocyanin assay in P. aeruginosa PA14 cultures. It counts as cell-based, Pseudomonas aeruginosa PA14. The following applies: Pseudomonas aeruginosa; for IC50: PA14, read-out: Pyocyanin IC50, PA14 cultures, photometric quantification, mean of at least two independent experiments, SD<25 %. As to the method: 6. Effects in P. aeruginosa
Pyocyanin Assay. The inhibition of virulence factor pyocyanin was measured as described previously[26] following a procedure established by Essar et al.[28] Briefly, Pseudomonas aeruginosa PA14 cultures were grown in the presence of inhibitors or DMSO as control for 16 h. Pyocyanin was determined photometrically after extraction of the cultures with chloroform and re-extraction with 0.2 M HCl. Protonated red colored pyocyanin was determined by measuring OD520 and normalizing to OD600. None of the compound impaired bacterial viability as observed by the OD600 parameter. Inhibition values were expressed in relation to the DMSO control. Each value is the mean of at least two independent experiments with n=3.
The given IC50 values represent the mean of at least two experiments using at least five different concentrations. Curve fitting was performed using the log (inhibitor) vs response model with constrained bottom = 0 and top =100 (GraphPad Prism 5.0).
Figure S4: Inhibition of virulence factor pyocyanin was evaluated in the clinical isolate PA14.
Representative dose-response curves a) compound 11 b) compound 20. Black dotes (•) represent the reduction of pyocyanin in presents of a given compound concentration relative to DMSO control (= 0 %). The continuous black line is the none -linear regression analysis to […]
(1 picture or pasted object on this page, not shown here)

Experiment [4] has as its target PqsR ligand binding domain. Also noted: method as in PMID 23713667. The following applies: native agonist PQS towards the ligand binding domain; cited from earlier work.
Experiment [5] has as its system PqsR. Set-up: method as in PMID 24338917. The following applies: PQS-mediated effect in E. coli-based assay; read-out: EC 50(E.coli); cited from earlier work.
Experiment [6] deals with T1, PqsR. Briefly: PQS-mediated effect in P. aeruginosa. It counts as cell-based. Set-up: expressed in transfected cells; host or cells: E. coli DH5α carrying plasmid pEAL08-2.
Target sequence in this assay (Q9I4X0 whole entry): as above
Where [7] appears, read: Table 1, EE=−ΔH/(heavy atom count).
[8] abbreviates: Table 1, LE=−ΔG/(heavy atom count).
The mark [9] stands for this setting: PA14, read-out: Pyocyanin inhibition.

“And” between values parts separate entries of the source, which are not always exact repeats. Equal values may be shown once.

Consider `CC(C)(C)c1ccc(C(=O)NO)cc1` [Compound 1], for which the affinity on PqsR [1], expressed as Kd, was 4100 ± 600 nM. This compound also came in with an EE at PqsR [1] (setting [7]) of 0.63 kcal/mol. Moreover, at PqsR [1] (Table 1, ITC at 298 K), the ΔG is -7.4 ± 0.1 kcal/mol, the ΔH is -8.9 ± 0.2 kcal/mol and the “−TΔS” value is 1.5 ± 0.3 kcal/mol. For the same compound, the LE at PqsR [1] (setting [8]) came to 0.53 kcal/mol.
`Nc1nnc(-c2cccc(C(F)(F)F)c2)o1` [Compound 2] gave a Kd at PqsR [1] of 1300 ± 300 nM. The EE on PqsR [1] (setting [7]) stood at 0.53 kcal/mol. Also, on PqsR [1] (Table 1, ITC at 298 K), the ΔG was -8.0 ± 0.1 kcal/mol, the ΔH is -8.5 ± 0.5 kcal/mol and the “−TΔS” value amounted to 0.4 ± 0.6 kcal/mol. Further, the LE at PqsR [1] (setting [8]) was determined as 0.50 kcal/mol.
As to `Nc1cccc(Br)n1` [Compound 3], the “IC50 (inverse agonistic/antagonistic activity)” value at PqsR [2] is recorded as “did not show significant antagonistic activity”. This compound also came in with a Kd at PqsR [1] of 10000 ± 1300 nM. At PqsR [1] (setting [7]), this compound showed an EE of 1.17 kcal/mol. Further, on PqsR [1] (Table 1, ITC at 298 K), the ΔG was -6.8 ± 0.1 kcal/mol, the ΔH is -9.3 ± 0.4 kcal/mol and the “−TΔS” value was 2.5 ± 0.4 kcal/mol. This compound displayed an LE on PqsR [1] (setting [8]) of 0.85 kcal/mol.
At PqsR [1], `Nc1ccc(Br)cn1` [Compound 4] gave a Kd of over 50000 nM.
For the compound `Nc1cc(Br)ccn1` [Compound 5], the Kd at PqsR [1] was 21300 ± 3400 nM. In addition, at PqsR [1] (setting [7]), the EE worked out at 0.72 kcal/mol. Besides, at PqsR [1] (Table 1, ITC at 298 K), the ΔG is -6.4 ± 0.1 kcal/mol, the ΔH was -5.8 ± 0.1 kcal/mol and the “−TΔS” value is -0.6 ± 0.2 kcal/mol. The same compound came in with an LE at PqsR [1] (setting [8]) of 0.80 kcal/mol.
At PqsR [1], `Nc1ncccc1Br` [Compound 6] showed a Kd of over 50000 nM.
`Nc1cccc(C(F)(F)F)n1` [Compound 7]: the inhibition at 250 µM in experiment [3] (setting [9]) amounted to 43%. The same compound displayed a Kd on PqsR [1] of 3100 ± 500 nM. Further, the EE at PqsR [1] (setting [7]) was found to be 1.05 kcal/mol. At PqsR [1] (Table 1, ITC at 298 K), the ΔG is -7.5 ± 0.1 kcal/mol; the ΔH was -11.5 kcal/mol and -11.5 ± 0.9 kcal/mol; the “−TΔS” value worked out at 3.7 ± 1 kcal/mol. At PqsR [1] (setting [8]), this compound returned an LE of 0.70 kcal/mol.
As for `CC(=O)Nc1cccc(C(F)(F)F)n1` [Compound 8], on PqsR [2], the “IC50 (inverse agonistic/antagonistic activity)” value is reported as “n.i”. For the same compound, the “K D (ITC)” value at PqsR [1] (Table 1, ITC at 298 K, mean±SD, at least two independent experiments, >50 = no heat release detectable at solubility maximum) is reported as “abolished the affinity”.
`Nc1cc(C#CC2CC2)cc(C(F)(F)F)n1` [Compound 9]: the “IC50 (inverse agonistic/antagonistic activity)” value at PqsR [2] was “n.i”. The compound also returned a Kd at PqsR [1] of 7500 ± 100 nM. Besides, on PqsR [1] (Table S1), the “-TΔS” value was -3.8 ± 0.6 kcal/mol; the ΔG was -6.9 ± 0.0 kcal/mol; the ΔH is -3.7 ± 0.6 kcal/mol and -3.7 kcal/mol. The EE on PqsR [1] (Table S1, enthalpic efficiency) is 0.23 kcal/mol. Besides, at PqsR [1] (Table S1, ligand efficiency), the LE amounted to 0.43 kcal/mol.
Take `Nc1cc(-c2ccc(F)cc2)cc(C(F)(F)F)n1` [Compound 10]: the “Inverse agonistic/antagonistic activity at a given concentration” value on PqsR [2] stood at 29 % @ 100 μM.
In turn, `Nc1cc(NCc2ccccc2)cc(C(F)(F)F)n1` [Compound 12] came in with a Kd at PqsR [1] of 1400 ± 500 nM. Besides, at PqsR [1] (Table S1), the “-TΔS” value was determined as 3.2 ± 0.5 kcal/mol and the ΔG was -8.1 ± 0.3 kcal/mol. The compound further yielded an EE on PqsR [1] (Table S1, enthalpic efficiency) of 0.57 kcal/mol. This compound displayed an LE at PqsR [1] (Table S1, ligand efficiency) of 0.43 kcal/mol.
In the same order, the values of `Nc1cc(NCc2ccc(F)cc2F)cc(C(F)(F)F)n1` [Compound 13] are 1300 ± 300 nM, 3.5 ± 0.8 kcal/mol, -8.0 ± 0.1 kcal/mol, 0.55 kcal/mol and 0.40 kcal/mol.
Consider `Nc1cc(NC(=O)c2ccc(F)cc2)cc(C(F)(F)F)n1` [Compound 16], for which the “Inverse agonistic/antagonistic activity at a given concentration” value at PqsR [2] was found to be 35±5 % @ 100 μM.
`Nc1cc(N2CCC(c3ccc(F)cc3)C2)cc(C(F)(F)F)n1` (stereo not drawn) [Compound 18]: at PqsR [2], the “IC50 (inverse agonistic/antagonistic activity)” value is recorded as “n.i”.
Turning to `Nc1cc(NCCc2ccc(F)cc2)cc(C(F)(F)F)n1` [Compound 19], the Kd on PqsR [1] amounted to 4700 ± 2300 nM. Moreover, at PqsR [1] (Table S1), the “-TΔS” value was determined as 6.1 ± 0.7 kcal/mol and the ΔG was -7.4 ± 0.3 kcal/mol. This compound displayed an EE on PqsR [1] (Table S1, enthalpic efficiency) of 0.64 kcal/mol. Also, on PqsR [1] (Table S1, ligand efficiency), the LE was determined as 0.35 kcal/mol.
As for `Nc1cc(NCCOc2ccc(F)cc2)cc(C(F)(F)F)n1` [Compound 21], the inhibition at 100 µM in experiment [3] (setting [9]) worked out at 58%. Besides, the “drop in antagonistic activity versus 20” value at PqsR [2] (E. coli reporter gene assay, compared with 20) was found to be 20 fold.
As for `Nc1cc(NCC(=O)Nc2ccc(F)cc2)cc(C(F)(F)F)n1` [Compound 22], the inhibition at 100 µM in experiment [3] (setting [9]) stood at 37%.
Take `O=C(CSc1nc2ccc([N+](=O)[O-])cc2[nH]1)Nc1ccc(Oc2ccccc2)cc1` [Compound R1, reference compound]: the IC50 in experiment [3] amounted to 120 nM.
As for `CCCCCCCc1[nH]c2ccc([N+](=O)[O-])cc2c(=O)c1C(N)=O` [Compound R2, reference compound], the IC50 in experiment [3] was determined as 2000 nM.
Consider `CCCCCCCc1[nH]c2ccccc2c(=O)c1O` [PQS, 2‐heptyl‐3‐hydroxy‐4(1H)‐quinolone], for which the Kd in experiment [4] was 1200 ± 300 nM. Further, the EC50 with PqsR [5] is 6.3 nM; at PqsR [6], 24 nM.
